Experimental data as given in the kinase profiling compilation of Christmann-Franck et al. (2016).

Key:
Test in all cases: KINOMEscan competition binding
Conditions in all cases: compound 1.0 µM
[1] = biological target: MAP2K6 (human) (UniProt P52564)
[2] = biological target: RPS6KA5 KD2 (human) (UniProt O75582)
[3] = biological target: DCLK3 (human) (UniProt Q9C098)
[4] = biological target: MAP3K1 (human) (UniProt Q13233)
[5] = biological target: NUAK2 (human) (UniProt Q9H093)
[6] = biological target: MAP2K2 (human) (UniProt P36507)
[7] = system: FLT3 (human), P36888 [D835Y]
[8] = biological target: CDK15 (human) (UniProt Q96Q40)
[9] = biological target: SNRK (human) (UniProt Q9NRH2)
[10] = biological target: CSF1R (human) (UniProt P07333)
[11] = biological target: LTK (human) (UniProt P29376)
[12] = biological target: TESK1 (human) (UniProt Q15569)
[13] = biological target: ACVR1 (human) (UniProt Q04771)
[14] = biological target: DAPK2 (human) (UniProt Q9UIK4)
[15] = biological target: HIPK1 (human) (UniProt Q86Z02)
[16] = system: KIT (human), P10721 [L576P]
[17] = biological target: BRSK1 (human) (UniProt Q8TDC3)
[18] = biological target: ERN1 (human) (UniProt O75460)
[19] = biological target: SRPK3 (human) (UniProt Q9UPE1)
[20] = biological target: MKNK2 (human) (UniProt Q9HBH9)
[21] = biological target: DAPK1 (human) (UniProt P53355)
[22] = biological target: STK24 (human) (UniProt Q9Y6E0)
[23] = biological target: STK32B (human) (UniProt Q9NY57)
[24] = biological target: RPS6KA3 KD1 (human) (UniProt P51812)
[25] = biological target: CAMKK2 (human) (UniProt Q96RR4)
[26] = biological target: MAK (human) (UniProt P20794)
[27] = biological target: CSNK1A1L (human) (UniProt Q8N752)
[28] = biological target: GRK4 (human) (UniProt P32298)
[29] = system: EGFR (human), P00533 [746-750 del]
[30] = biological target: NTRK1 (human) (UniProt P04629)
[31] = biological target: RPS6KA1 KD1 (human) (UniProt Q15418)
[32] = biological target: FLT3 (human) (UniProt P36888)
[33] = biological target: CDC2L2 (human) (UniProt Q9UQ88)
[34] = biological target: SIK1 (human) (UniProt P57059)
[35] = biological target: PAK7 (human) (UniProt Q9P286)
[36] = biological target: ERBB2 (human) (UniProt P04626)
[37] = biological target: FGFR3 (human) (UniProt P22607)
[38] = biological target: PIP5K1C (human) (UniProt O60331)
[39] = biological target: CLK1 (human) (UniProt P49759)
[40] = system: PIK3CA (human), P42336 [I800L]
[41] = biological target: PTK2 (human) (UniProt Q05397)
[42] = biological target: DAPK3 (human) (UniProt O43293)
[43] = biological target: EPHA2 (human) (UniProt P29317)

DAPK1 (human), sequence (P53355 whole entry, looked up): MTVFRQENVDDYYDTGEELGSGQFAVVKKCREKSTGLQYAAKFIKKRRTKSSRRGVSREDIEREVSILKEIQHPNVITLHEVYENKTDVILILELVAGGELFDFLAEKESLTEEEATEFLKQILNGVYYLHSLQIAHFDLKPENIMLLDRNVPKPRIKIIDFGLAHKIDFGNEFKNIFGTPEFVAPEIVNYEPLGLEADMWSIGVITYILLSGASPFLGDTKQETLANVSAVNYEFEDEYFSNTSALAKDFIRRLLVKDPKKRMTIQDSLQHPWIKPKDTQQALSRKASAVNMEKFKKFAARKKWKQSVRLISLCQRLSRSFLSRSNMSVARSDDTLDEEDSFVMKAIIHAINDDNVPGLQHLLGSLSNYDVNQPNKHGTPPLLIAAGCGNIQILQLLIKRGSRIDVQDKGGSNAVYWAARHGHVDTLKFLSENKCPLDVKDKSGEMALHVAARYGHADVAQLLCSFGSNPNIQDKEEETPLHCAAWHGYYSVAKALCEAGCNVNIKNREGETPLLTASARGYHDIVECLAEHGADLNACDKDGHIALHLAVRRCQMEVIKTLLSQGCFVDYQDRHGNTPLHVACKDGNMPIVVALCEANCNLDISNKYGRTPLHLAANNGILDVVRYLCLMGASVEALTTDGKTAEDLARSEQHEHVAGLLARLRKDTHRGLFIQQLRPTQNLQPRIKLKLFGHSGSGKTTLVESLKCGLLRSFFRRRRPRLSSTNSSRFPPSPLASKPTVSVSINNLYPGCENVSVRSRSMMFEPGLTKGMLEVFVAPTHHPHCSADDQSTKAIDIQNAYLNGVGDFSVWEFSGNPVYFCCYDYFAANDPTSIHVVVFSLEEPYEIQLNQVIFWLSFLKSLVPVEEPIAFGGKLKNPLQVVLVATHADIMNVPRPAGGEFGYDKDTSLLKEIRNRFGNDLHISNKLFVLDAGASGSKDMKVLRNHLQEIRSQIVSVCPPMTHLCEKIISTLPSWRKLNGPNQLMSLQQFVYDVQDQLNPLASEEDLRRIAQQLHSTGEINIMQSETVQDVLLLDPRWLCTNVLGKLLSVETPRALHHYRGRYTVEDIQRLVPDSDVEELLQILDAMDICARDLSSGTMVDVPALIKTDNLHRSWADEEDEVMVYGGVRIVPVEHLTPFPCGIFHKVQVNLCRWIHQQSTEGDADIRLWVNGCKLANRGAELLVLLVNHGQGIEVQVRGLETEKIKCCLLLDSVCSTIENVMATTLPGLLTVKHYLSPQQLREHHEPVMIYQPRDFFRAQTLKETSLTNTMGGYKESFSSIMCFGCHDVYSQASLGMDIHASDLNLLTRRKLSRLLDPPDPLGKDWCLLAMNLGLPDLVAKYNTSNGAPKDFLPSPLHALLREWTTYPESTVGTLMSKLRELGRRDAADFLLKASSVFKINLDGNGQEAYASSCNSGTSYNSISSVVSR
PIP5K1C (human), sequence (O60331 whole entry, looked up): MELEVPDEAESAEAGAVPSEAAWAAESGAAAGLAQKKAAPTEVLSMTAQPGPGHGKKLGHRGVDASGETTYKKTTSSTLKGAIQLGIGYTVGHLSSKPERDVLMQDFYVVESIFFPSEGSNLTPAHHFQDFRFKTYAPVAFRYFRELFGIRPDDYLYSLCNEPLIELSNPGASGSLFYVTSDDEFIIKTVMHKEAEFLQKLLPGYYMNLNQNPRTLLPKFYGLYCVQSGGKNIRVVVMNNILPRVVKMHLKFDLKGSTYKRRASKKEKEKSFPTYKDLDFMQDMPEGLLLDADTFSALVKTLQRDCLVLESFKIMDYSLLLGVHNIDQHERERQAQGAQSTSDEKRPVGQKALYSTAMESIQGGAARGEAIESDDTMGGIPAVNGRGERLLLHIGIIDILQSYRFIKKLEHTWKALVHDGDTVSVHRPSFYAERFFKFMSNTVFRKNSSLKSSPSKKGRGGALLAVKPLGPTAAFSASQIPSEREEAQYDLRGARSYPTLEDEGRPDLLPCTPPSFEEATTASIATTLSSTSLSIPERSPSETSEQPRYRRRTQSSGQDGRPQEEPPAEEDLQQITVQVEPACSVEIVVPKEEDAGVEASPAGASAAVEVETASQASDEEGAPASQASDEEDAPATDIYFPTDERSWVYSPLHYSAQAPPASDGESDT
RPS6KA1 KD1 (human), sequence (Q15418 whole entry, looked up): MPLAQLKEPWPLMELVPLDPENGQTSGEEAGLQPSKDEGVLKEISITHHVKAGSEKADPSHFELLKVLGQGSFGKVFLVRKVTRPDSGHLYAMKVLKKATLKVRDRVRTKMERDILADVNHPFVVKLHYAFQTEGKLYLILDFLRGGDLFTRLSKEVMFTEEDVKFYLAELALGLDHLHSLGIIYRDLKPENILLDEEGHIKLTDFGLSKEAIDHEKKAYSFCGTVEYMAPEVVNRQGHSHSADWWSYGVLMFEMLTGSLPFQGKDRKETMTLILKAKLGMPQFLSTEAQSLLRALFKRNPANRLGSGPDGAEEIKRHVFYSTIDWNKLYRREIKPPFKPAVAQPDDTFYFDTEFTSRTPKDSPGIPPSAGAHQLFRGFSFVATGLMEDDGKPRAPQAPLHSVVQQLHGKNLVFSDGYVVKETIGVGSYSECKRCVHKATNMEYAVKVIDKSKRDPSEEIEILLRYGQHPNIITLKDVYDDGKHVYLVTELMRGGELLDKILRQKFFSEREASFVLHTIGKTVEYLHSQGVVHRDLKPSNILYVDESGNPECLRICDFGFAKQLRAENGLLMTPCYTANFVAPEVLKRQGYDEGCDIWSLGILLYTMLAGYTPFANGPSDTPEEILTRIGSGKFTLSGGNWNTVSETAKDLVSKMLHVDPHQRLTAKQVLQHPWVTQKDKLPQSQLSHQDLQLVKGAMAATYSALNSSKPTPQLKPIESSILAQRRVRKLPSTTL
PIK3CA (human), P42336 [I800L], sequence (P42336 whole entry I800L, looked up): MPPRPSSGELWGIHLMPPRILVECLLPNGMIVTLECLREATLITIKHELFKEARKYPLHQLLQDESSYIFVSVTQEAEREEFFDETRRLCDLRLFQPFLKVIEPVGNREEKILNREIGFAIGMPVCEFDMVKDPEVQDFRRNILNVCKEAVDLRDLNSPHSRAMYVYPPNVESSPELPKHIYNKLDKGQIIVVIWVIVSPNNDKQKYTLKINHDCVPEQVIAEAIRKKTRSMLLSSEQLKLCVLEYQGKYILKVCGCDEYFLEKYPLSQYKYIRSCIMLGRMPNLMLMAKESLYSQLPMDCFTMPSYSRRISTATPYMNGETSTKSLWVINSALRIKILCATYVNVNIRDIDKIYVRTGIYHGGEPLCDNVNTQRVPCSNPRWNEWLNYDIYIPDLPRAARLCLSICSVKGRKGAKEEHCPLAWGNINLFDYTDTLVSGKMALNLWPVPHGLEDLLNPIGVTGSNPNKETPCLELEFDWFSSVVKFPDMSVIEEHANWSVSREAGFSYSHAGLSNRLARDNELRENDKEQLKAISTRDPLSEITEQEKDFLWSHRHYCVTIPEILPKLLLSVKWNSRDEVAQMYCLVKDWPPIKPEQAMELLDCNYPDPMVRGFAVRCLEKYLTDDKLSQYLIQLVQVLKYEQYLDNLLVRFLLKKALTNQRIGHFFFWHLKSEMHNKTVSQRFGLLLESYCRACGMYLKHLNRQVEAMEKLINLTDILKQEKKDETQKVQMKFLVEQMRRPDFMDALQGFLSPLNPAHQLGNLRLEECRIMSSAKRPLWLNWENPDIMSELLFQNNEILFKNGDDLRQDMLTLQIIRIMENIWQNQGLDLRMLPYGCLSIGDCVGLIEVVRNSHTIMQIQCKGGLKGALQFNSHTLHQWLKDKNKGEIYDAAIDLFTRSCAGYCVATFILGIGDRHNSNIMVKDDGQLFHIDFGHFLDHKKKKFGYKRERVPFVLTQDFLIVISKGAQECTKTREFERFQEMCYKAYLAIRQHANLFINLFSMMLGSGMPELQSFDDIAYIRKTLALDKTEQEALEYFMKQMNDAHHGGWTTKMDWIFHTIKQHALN
PAK7 (human), sequence (Q9P286 whole entry, looked up): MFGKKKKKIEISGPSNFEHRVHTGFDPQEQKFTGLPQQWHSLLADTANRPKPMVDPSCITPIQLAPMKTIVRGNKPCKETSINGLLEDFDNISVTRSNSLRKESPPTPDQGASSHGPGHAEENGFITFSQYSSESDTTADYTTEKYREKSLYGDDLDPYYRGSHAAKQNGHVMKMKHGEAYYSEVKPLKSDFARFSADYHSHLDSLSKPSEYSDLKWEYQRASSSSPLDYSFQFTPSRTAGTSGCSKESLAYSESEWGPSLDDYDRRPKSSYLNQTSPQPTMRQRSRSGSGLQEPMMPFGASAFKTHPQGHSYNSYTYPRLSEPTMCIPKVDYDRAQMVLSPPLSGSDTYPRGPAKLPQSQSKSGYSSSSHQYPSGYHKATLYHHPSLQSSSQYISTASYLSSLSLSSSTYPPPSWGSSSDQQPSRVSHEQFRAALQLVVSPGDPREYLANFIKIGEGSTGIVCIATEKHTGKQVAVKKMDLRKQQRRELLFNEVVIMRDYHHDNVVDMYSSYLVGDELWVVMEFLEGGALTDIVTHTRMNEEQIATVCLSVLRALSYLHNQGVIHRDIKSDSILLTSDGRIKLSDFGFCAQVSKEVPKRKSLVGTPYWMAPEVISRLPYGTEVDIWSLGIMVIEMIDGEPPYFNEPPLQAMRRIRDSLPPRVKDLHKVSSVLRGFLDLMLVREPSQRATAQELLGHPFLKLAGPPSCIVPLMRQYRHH
CDK15 (human), sequence (Q96Q40 whole entry, looked up): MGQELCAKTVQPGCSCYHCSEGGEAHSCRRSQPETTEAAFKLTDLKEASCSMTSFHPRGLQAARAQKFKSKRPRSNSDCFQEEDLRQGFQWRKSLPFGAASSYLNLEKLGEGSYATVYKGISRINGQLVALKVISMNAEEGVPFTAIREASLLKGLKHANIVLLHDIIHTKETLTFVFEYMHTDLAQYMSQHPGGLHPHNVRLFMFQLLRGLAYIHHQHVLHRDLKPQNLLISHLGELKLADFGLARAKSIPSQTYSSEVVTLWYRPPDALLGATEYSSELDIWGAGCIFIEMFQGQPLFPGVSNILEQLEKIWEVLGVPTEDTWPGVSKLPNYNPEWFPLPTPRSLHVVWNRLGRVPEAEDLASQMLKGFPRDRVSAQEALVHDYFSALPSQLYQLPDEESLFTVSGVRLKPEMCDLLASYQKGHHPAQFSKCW

For COCCNCCCn1c(C(=O)CF)c(-c2ccc(C)cc2)c2c(N)ncnc21, the kinase still bound, per cent of control [1] was 97%, the kinase still bound, per cent of control [2] was 98% and the kinase still bound, per cent of control [3] was 100%. It also gave a kinase still bound, per cent of control [4] of 100%, a kinase still bound, per cent of control [5] of 96% and a kinase still bound, per cent of control [6] of 100%. It also gave a kinase still bound, per cent of control [7] of 100%, a kinase still bound, per cent of control [8] of 100% and a kinase still bound, per cent of control [9] of 99%. The kinase still bound, per cent of control [10] was 89%, the kinase still bound, per cent of control [11] was 100% and the kinase still bound, per cent of control [12] was 100%. For the same molecule, the kinase still bound, per cent of control [13] was 100%, the kinase still bound, per cent of control [14] was 97% and the kinase still bound, per cent of control [15] was 96%. It also gave a kinase still bound, per cent of control [16] of 71%, a kinase still bound, per cent of control [17] of 82% and a kinase still bound, per cent of control [18] of 99%. It also gave a kinase still bound, per cent of control [19] of 78%, a kinase still bound, per cent of control [20] of 92% and a kinase still bound, per cent of control [21] of 100%. For the same molecule, the kinase still bound, per cent of control [22] was 78%, the kinase still bound, per cent of control [23] was 98% and the kinase still bound, per cent of control [24] was 97%. It also gave a kinase still bound, per cent of control [25] of 100%, a kinase still bound, per cent of control [26] of 95% and a kinase still bound, per cent of control [27] of 100%. The kinase still bound, per cent of control [28] was 85%, the kinase still bound, per cent of control [29] was 100% and the kinase still bound, per cent of control [30] was 82%. The kinase still bound, per cent of control [31] was 78%, the kinase still bound, per cent of control [32] was 71% and the kinase still bound, per cent of control [33] was 100%. For the same molecule, the kinase still bound, per cent of control [34] was 98%, the kinase still bound, per cent of control [35] was 82% and the kinase still bound, per cent of control [36] was 100%. For the same molecule, the kinase still bound, per cent of control [37] was 92%, the kinase still bound, per cent of control [38] was 100% and the kinase still bound, per cent of control [39] was 87%. The kinase still bound, per cent of control [40] was 100%, the kinase still bound, per cent of control [41] was 100% and the kinase still bound, per cent of control [42] was 97%. It also gave a kinase still bound, per cent of control [43] of 100%.
